Assay results: ChEMBL document CHEMBL1201862, “PubChem BioAssay data set” (2004)
The source made the active and inactive calls.

Key:
Type in all cases: functional
[1] = molecular target: Serine/threonine-protein kinase PLK1 (Homo sapiens, UniProt P53350);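 note: PLK1 measured as one member of a kinome-wide profiling panel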
[2] = molecular target: T1, Serine/threonine-protein kinase 17A (Homo sapiens, UniProt Q9UEE5)
T1 sequence (Q9UEE5 whole entry): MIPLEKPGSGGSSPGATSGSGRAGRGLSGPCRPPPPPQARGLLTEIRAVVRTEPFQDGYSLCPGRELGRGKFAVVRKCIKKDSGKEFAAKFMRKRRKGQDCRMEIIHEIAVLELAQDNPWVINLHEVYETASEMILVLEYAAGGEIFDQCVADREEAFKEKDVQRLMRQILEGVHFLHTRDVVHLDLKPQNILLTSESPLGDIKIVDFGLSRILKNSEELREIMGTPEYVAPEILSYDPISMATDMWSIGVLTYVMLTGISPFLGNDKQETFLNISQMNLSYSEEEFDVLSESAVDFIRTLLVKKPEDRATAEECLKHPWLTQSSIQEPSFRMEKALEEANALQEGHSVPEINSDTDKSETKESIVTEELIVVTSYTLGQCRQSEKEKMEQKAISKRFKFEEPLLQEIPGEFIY

[3] = molecular target: Ribosomal protein S6 kinase alpha-3 (Homo sapiens, UniProt P51812);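 note: measured within a kinome-wide profiling panel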
[4] = molecular target: Mitogen-activated protein kinase kinase kinase kinase 5 (Homo sapiens, UniProt Q9Y4K4);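 note: measured as one member of a kinome-spanning kinase panel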
[5] = molecular target: Insulin-like growth factor 1 receptor (Homo sapiens, UniProt P08069); test: Navigating the Kinome. Panel member name: IGF1R
[6] = molecular target: Dual specificity mitogen-activated protein kinase kinase 2 (Homo sapiens, UniProt P36507); test: Navigating the Kinome. Panel member name: MAP2K2
[7] = molecular target: MAP kinase-activated protein kinase 3 (Homo sapiens, UniProt Q16644);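 note: value comes from a kinome-wide profiling panel in which MAPKAPK3 is one of the panel members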
[8] = molecular target: T2, Serine/threonine-protein kinase TAO1 (Homo sapiens, UniProt Q7L7X3)
T2 sequence (Q7L7X3 whole entry): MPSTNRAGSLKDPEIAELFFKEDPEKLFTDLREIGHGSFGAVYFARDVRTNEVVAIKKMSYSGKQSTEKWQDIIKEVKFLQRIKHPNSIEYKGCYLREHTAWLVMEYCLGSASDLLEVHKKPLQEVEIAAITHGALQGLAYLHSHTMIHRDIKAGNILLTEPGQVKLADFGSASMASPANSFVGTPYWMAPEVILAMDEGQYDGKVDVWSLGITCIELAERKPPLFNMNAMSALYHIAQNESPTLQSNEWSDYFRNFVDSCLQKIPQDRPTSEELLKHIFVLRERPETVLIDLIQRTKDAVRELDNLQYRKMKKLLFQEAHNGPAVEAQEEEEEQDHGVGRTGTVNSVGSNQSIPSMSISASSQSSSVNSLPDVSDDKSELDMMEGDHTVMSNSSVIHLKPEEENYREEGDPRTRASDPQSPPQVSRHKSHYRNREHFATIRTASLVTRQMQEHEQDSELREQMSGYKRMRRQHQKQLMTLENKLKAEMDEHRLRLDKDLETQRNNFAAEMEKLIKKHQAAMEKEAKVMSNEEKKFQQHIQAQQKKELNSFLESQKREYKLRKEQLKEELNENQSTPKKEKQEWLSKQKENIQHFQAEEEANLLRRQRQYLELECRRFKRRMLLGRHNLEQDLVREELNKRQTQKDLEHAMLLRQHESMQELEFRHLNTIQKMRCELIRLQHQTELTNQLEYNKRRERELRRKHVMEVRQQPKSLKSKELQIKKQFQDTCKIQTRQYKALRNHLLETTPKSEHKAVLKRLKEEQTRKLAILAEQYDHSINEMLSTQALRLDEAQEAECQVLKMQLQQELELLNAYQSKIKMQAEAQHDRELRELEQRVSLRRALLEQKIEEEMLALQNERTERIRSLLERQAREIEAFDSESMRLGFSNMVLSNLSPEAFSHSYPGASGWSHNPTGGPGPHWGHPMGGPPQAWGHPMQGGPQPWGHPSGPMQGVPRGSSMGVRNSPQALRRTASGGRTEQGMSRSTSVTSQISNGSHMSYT

[9] = molecular target: Tyrosine-protein kinase ABL1 (Homo sapiens, UniProt P00519)
[10] = molecular target: T3, Tyrosine-protein kinase JAK3 (Homo sapiens, UniProt P52333)
T3 sequence (P52333 whole entry): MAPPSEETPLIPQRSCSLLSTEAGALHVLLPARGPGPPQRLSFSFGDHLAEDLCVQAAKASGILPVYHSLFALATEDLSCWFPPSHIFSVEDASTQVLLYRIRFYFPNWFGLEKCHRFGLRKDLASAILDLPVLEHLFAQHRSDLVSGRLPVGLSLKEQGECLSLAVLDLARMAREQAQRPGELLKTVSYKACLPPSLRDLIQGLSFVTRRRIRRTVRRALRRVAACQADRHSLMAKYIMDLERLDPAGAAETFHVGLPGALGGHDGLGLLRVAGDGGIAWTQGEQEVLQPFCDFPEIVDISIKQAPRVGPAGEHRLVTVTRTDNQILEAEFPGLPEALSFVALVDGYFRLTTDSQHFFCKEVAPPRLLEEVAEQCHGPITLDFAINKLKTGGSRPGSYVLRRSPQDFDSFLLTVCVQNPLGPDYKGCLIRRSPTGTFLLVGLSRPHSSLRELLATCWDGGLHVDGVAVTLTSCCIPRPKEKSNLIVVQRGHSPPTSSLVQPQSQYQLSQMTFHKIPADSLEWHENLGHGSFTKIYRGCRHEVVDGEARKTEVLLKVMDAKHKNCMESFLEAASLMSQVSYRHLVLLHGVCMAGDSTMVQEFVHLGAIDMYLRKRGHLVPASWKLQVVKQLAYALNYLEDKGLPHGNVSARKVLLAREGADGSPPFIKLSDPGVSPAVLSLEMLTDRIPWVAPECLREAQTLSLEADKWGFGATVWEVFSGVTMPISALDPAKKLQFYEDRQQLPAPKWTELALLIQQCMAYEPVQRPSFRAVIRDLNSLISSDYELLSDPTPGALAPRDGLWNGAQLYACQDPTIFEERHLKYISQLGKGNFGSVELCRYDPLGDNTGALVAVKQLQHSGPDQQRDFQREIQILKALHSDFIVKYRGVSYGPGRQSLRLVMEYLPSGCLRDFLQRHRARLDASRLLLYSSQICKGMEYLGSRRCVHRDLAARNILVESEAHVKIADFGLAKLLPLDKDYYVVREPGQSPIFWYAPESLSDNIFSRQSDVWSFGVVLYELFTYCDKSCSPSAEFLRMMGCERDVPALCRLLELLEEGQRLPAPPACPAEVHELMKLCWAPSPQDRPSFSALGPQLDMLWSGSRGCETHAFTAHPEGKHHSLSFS

[11] = molecular target: Tyrosine-protein kinase SYK (Homo sapiens, UniProt P43405)

Chain of Ribosomal protein S6 kinase alpha-3 (P51812 whole entry): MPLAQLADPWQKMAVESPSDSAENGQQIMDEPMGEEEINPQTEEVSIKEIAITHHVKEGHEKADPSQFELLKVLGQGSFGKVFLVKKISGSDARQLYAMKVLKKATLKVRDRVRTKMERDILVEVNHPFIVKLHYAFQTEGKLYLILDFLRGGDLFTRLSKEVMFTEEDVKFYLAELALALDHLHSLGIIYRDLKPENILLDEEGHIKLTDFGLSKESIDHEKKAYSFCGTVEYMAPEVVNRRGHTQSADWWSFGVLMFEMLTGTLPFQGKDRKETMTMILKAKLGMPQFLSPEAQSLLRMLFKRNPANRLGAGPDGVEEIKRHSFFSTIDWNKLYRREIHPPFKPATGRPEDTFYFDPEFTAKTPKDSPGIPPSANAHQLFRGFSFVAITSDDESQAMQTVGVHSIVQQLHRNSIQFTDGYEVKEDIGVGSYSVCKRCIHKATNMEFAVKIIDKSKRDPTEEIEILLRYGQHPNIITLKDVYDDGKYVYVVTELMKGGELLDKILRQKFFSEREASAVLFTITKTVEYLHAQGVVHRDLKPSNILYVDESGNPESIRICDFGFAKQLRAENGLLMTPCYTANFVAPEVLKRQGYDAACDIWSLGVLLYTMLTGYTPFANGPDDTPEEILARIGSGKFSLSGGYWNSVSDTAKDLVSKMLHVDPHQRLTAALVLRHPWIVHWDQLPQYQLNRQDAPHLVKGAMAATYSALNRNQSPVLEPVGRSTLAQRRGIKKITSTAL
Chain of Mitogen-activated protein kinase kinase kinase kinase 5 (Q9Y4K4 whole entry): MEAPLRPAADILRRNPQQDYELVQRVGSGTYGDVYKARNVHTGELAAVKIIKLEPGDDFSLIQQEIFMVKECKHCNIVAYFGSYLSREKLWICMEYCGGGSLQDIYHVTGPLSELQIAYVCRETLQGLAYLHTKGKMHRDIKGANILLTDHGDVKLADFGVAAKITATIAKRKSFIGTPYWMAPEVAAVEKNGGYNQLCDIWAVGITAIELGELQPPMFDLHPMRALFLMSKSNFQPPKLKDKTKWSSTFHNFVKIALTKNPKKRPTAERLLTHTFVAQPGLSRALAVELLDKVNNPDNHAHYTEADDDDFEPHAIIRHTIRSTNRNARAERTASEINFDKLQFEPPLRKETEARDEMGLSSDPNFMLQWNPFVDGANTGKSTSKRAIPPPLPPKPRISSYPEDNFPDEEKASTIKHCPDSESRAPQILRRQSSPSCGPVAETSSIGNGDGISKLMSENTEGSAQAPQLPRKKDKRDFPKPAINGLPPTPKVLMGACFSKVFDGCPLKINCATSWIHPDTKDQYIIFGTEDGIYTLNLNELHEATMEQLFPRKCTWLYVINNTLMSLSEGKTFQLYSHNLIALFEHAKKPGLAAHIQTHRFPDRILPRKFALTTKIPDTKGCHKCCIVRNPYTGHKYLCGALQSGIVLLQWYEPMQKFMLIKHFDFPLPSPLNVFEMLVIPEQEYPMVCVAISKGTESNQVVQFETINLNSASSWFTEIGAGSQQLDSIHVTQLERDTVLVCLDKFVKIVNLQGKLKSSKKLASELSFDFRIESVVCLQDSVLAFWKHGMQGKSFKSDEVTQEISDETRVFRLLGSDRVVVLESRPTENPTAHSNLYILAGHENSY
Chain of Insulin-like growth factor 1 receptor (P08069 31-736 limits assumed): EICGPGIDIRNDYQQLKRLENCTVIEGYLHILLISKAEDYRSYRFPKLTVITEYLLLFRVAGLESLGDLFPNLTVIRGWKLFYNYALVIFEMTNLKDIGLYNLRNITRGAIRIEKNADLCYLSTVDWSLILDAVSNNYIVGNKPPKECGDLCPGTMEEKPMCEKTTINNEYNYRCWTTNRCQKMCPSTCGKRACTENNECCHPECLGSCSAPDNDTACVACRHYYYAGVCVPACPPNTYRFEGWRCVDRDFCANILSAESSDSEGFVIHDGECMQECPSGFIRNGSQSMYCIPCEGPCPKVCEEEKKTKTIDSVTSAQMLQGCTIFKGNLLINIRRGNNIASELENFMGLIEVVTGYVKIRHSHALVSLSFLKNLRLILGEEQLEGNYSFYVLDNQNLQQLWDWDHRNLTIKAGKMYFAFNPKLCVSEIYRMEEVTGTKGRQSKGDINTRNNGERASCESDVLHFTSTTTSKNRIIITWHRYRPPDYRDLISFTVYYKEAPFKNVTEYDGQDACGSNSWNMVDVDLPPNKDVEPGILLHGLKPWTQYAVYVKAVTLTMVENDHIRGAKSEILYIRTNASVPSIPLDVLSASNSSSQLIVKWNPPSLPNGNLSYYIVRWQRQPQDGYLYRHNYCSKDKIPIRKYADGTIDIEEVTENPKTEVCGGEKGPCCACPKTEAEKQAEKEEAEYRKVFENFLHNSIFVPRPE
Chain of Insulin-like growth factor 1 receptor (P08069 741-1367 limits assumed): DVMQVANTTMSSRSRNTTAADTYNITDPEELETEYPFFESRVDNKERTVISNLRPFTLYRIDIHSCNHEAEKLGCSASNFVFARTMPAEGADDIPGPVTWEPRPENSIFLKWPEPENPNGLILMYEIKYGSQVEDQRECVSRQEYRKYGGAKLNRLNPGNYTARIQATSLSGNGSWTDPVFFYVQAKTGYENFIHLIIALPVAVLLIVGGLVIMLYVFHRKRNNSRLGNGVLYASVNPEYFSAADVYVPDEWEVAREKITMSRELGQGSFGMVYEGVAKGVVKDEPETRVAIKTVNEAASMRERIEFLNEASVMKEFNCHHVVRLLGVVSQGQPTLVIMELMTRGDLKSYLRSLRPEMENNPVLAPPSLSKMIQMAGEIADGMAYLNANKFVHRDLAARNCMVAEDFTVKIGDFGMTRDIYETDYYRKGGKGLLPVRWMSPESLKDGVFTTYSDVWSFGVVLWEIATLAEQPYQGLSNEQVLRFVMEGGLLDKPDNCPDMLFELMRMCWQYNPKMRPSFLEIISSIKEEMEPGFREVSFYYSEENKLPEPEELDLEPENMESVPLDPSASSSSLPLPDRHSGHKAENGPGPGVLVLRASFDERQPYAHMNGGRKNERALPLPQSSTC
Chain of Serine/threonine-protein kinase PLK1 (P53350 whole entry): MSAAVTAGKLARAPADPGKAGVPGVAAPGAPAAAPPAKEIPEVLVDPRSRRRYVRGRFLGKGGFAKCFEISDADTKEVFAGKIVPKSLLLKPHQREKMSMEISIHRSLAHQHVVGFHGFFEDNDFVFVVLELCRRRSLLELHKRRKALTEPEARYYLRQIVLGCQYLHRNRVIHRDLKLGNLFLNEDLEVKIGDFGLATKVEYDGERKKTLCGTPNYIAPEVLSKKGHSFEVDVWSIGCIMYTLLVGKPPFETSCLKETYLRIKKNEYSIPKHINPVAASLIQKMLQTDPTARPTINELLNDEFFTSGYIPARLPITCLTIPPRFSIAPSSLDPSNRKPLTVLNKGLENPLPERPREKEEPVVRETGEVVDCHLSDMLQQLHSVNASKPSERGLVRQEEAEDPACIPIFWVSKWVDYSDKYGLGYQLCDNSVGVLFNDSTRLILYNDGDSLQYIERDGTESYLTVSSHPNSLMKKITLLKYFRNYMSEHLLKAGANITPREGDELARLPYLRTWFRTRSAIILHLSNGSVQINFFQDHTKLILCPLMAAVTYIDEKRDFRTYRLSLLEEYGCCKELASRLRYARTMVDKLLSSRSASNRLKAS
Chain of Dual specificity mitogen-activated protein kinase kinase 2 (P36507 whole entry): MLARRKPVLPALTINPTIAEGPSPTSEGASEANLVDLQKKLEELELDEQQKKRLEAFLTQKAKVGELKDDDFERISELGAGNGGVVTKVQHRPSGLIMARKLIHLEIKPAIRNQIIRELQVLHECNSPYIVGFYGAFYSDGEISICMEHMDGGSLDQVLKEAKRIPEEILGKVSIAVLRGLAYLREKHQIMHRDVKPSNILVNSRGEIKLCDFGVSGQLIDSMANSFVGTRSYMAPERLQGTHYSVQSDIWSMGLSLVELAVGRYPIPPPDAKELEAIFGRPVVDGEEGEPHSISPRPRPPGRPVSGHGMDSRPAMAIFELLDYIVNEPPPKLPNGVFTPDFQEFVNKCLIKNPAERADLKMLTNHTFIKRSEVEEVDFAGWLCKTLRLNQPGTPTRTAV
Chain of Tyrosine-protein kinase ABL1 (P00519 whole entry): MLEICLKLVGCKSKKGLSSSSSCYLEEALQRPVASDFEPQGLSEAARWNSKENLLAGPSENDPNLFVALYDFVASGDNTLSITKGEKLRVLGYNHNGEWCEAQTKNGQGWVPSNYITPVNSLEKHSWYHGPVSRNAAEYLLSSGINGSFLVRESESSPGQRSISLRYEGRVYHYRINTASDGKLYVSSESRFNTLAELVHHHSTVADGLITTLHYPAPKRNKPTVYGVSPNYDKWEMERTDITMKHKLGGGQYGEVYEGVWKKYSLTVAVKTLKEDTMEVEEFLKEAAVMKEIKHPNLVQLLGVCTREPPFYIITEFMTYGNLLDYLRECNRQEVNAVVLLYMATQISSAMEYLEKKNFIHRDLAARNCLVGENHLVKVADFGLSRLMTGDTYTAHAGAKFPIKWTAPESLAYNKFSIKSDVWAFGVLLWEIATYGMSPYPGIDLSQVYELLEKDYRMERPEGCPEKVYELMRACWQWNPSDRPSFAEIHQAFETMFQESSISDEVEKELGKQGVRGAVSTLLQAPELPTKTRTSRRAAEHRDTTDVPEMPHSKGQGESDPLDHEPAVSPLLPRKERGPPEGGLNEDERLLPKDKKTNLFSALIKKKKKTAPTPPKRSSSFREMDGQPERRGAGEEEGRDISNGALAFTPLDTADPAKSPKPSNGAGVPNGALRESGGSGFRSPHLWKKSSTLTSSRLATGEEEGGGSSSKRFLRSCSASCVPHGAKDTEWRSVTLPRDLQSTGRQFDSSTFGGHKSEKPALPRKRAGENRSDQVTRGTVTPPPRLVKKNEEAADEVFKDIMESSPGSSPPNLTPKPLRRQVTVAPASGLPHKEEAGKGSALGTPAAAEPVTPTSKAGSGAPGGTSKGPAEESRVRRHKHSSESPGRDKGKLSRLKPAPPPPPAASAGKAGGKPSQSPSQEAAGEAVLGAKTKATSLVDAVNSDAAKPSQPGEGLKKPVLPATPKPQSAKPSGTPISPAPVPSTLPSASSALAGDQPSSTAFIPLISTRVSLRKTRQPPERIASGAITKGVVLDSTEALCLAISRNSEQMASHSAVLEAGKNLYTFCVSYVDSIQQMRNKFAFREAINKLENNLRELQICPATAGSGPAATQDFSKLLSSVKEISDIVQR

Ki [1] | Ki [2] | pKi [2] | pKi [3] | Ki [4] | Ki [5] | Ki [7] | Ki [8] | pKi [8] | Ki [9] | Ki [10] | pKi [10] | Ki [11] | SMILES | Ki [3] | Ki [6]
> 7940 nM (inactive) | 25.1 nM (active) | 7.6 | 7.3 | > 2510 nM (inactive) | > 2000 nM (inactive) | > 10000 nM (inactive) | 251 nM (active) | 6.6 | > 631 nM (inactive) | 1000 nM (active) | 6 | > 1580 nM (inactive) | NC(=O)c1cc(-c2ccnc(N)n2)[nH]c1-c1ccc(Cl)cc1Cl | 50.1 nM (active) | > 3980 nM (inactive)
2510 nM (active) | 15.8 nM (active) | – | – | 63.1 nM (active) | > 1000 nM (inactive) | > 10000 nM (inactive) | 126 nM (active) | – | > 631 nM (inactive) | 50.1 nM (active) | – | 1580 nM (active) | NC(COc1cncc(-c2ccc3c(c2)C(=Cc2ccco2)C(=O)N3)c1)Cc1c[nH]c2ccccc12 (stereo unspecified) | – | –
– | – | – | – | – | – | – | – | – | – | – | – | – | Cc1ccc(-n2nc(C(C)(C)C)cc2NC(=O)Nc2ccc(OCCN3CCOCC3)c3ccccc23)cc1 [DORAMAPIMOD] | > 3980 nM (inactive) | > 3980 nM (inactive)
